Experimental data published in patent publication US12338253B2, “Nitrogen-containing polycyclic fused ring compound, pharmaceutical composition thereof, preparation method therefor and use thereof” (APPLIED PHARMACEUTICAL SCIENCE, INC., priority 2019, dated 2025).
pIC50: −log10 of the molar value.

Legend:
[1] = biological target: RET wt (Homo sapiens (Human), UniProt P07949); experiment: HTRF kinase activity test, RET wt; type: biochemical; settings: for pIC50: HTRF KinEASE-TK; for inhibitory activity on RET wt compared with cabozantinib: comparison in words
Chain of RET wt (P07949 29-1114): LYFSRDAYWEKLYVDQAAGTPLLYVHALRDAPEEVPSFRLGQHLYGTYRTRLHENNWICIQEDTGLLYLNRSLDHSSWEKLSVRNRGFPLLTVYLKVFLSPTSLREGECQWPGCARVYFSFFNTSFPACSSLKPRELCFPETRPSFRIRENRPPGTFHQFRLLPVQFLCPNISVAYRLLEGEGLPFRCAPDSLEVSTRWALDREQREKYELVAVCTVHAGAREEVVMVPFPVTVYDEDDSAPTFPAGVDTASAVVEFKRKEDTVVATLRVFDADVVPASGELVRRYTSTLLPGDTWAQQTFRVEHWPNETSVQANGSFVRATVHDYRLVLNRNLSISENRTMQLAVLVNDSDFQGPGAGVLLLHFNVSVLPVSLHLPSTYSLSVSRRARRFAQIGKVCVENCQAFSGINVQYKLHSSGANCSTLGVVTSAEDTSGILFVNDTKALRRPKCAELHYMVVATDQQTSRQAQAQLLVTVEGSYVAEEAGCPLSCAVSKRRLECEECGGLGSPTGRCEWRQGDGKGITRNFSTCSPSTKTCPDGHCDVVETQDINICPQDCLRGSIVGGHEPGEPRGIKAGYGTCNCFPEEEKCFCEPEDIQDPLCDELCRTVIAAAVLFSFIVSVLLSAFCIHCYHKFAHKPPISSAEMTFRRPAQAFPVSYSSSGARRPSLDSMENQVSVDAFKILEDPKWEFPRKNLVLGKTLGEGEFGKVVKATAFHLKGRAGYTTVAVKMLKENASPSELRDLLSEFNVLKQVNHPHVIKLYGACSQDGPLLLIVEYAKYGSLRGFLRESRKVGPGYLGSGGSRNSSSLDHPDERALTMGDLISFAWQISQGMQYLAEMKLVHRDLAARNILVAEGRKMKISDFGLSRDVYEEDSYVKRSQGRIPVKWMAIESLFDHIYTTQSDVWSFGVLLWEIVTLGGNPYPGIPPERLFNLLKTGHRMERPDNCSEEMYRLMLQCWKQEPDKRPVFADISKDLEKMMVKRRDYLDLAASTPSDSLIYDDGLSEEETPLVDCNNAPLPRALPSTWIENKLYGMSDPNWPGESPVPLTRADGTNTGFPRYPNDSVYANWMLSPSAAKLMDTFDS

[2] = system: TT cell human medullary thyroid carcinoma xenograft model; experiment: Pharmacodynamic test on TT cell human medullary thyroid carcinoma xenograft model; type: in vivo, mice; settings: 10 mg/kg, oral, twice a day, 28 consecutive days
Experimental: TT tumor cells were cultured in F12K medium containing inactivated 10% fetal bovine serum, 100 U/mL penicillin, 100 μg/mL streptomycin and 2 mM glutamine in an incubator at 37° C. and 5% CO2. The cells were cultured at a starting concentration of 1×10^6 cells/mL, and divided and transferred to flasks for sub-culture every 3 to 4 days when they were overgrown. The tumor cells in the logarithmic growth phase were used for tumor inoculation in vivo.
The TT tumor cells resuspended in serum-free F12K medium at a concentration of 1×10^7 cells+gel/100 μL were inoculated subcutaneously into the right flank of experimental animals. When the tumor grew to about 224 mm^3, the compounds were administered in groups, with 6 animals in each group.
The mice were orally administered with the test compound twice a day for 28 consecutive days.
Tumor volume: the long and short diameters of the tumor were measured using a vernier caliper. The volume was calculated by the formula: volume=0.5×long diameter×short diameter^2. Animals were required to have their body weight and tumor size measured twice a week during the administration.
Reaction of animals after the administration: the experimental animals were weighed while measuring the tumors. The relationship between the change in the animal weight and the time of administration was recorded. At the same time, the survival and health of the mice, such as animal activity, feeding and other general states during the administration were observed.
Relative tumor proliferation rate T/C (%)=TRTV/CRTV×100% (TRTV: treatment group RTV; CRTV: negative control group RTV), where the relative tumor volume (RTV) is calculated as: RTV=Vt/V0, where V0 is the tumor volume measured at the time of group administration (that is, day 1 of the administration), and Vt is the tumor volume at each measurement. Tumor growth inhibition rate TGI (%)=(1−T/C)×100%.

[3] = biological target: RET G810R (Homo sapiens (Human), UniProt P07949, G810R); experiment: HTRF kinase activity test, RET G810R; type: biochemical; settings: for pIC50: HTRF KinEASE-TK; for inhibitory activity on RET G810R compared with cabozantinib and selpercatinib (LOXO-292): comparison in words
Chain of RET G810R (P07949 29-1114 G810R): as the sequence (P07949 29-1114) above, with G782R counted along it

[4] = system: TT Cell; experiment: TT cell activity test (CelltiterGlo, 72 h); type: cell-based, human; settings: for pIC50: Homo sapiens, TT cell line, 72 h, CTG; for inhibitory activity on TT cells compared with cabozantinib: comparison in words
Experimental: 2.3 Data Processing % Inhibition (inhibition rate)=100*(HC−test compound well reading)/(HC−LC) • High control (HC, reading control without inhibition): 0.5% DMSO • Low control (LC, control with compound inhibition): 1 μM CEP-32496
The IC50 values were calculated using GraphPad Prism 6 software. Y=Bottom+(Top−Bottom)/(1+10^((Log IC50−X)*HillSlope)); • X: log of cpd concentration; • Y: % inhibition; • Top and Bottom: plateaus in same units as Y; • Log IC50: same log units as X; and • HillSlope: slope factor The Cell Results are Shown in Table 5: […]

[5] = biological target: RET V804M (Homo sapiens (Human), UniProt P07949, V804M); experiment: HTRF kinase activity test, RET V804M; type: biochemical; settings: for pIC50: HTRF KinEASE-TK; for inhibitory activity on RET V804M compared with cabozantinib: comparison in words
Chain of RET V804M (P07949 29-1114 V804M): as the sequence (P07949 29-1114) above, with V776M counted along it

[6] = system: Ba/F3 cell KIF5B-RET-V804M fusion xenograft model; experiment: Pharmacodynamic test on Ba/F3 cell KIF5B-RET-V804M fusion xenograft model; type: in vivo, BALB/c nude mice; settings: 10 mg/kg; for Tumor growth inhibition rate: oral, twice a day, end of the control experiment (day 8 of the administration); for tumor volume compared with the selpercatinib group: p<0.05
[7] = end of the experiment (day 14 of the administration)

| Compound | pIC50 [1] | inhibitory activity on RET wt compared with cabozantinib [1] | Tumor growth inhibition rate TGI [2] | pIC50 [3] | inhibitory activity on RET G810R compared with cabozantinib and selpercatinib (LOXO-292) [3] | pIC50 [4] | inhibitory activity on TT cells compared with cabozantinib [4] | pIC50 [5] | inhibitory activity on RET V804M compared with cabozantinib [5] | Tumor growth inhibition rate [6] | tumor volume compared with the selpercatinib group ([6]; day 8 of the administration) | tumor volume compared with the selpercatinib group [6, 7] |
| --- | --- | --- | --- | --- | --- | --- | --- | --- | --- | --- | --- | --- |
| COc1ccc(CN2C3CC2CN(c2ccc(-c4cc(OCC(F)F)cn5nc6[nH]ncc6c45)cn2)C3)cn1 [Compound 32, 6-(2,2-difluoroethoxy)-4-(6-(6-((6-methoxypyridin-3-yl)methyl)-3,6-diazabicyclo[3.3.1]heptan-3-yl)pyridin-3-yl)-1H-pyrazolo[3′,4′:3,4]pyrazolo[1,5-a]pyridine] | 10.00 | significantly better than that of cabozantinib | 86.9% | 8.64 | significantly better than that of cabozantinib and selpercatinib (LOXO-292) | 8.19 | significantly better than that of cabozantinib | 10.00 | significantly better than that of cabozantinib | 96% | significantly lower than that of the selpercatinib group | significantly lower than that of the selpercatinib group |
| COc1ccc(CN2C3CC2CN(c2ccc(-c4cc(OCC(C)(C)O)cn5ncc(C#N)c45)cn2)C3)cn1 [Selpercatinib(LOXO-292), Selpercatinib, reference compound] | – | – | – | – | – | – | – | – | – | 49% | – | – |
| CCOc1cc(-c2ccc(N3CC4CC(C3)N4Cc3ccc(OC)nc3)nc2)c2c3cn[nH]c3nn2c1 [Compound 9, 6-ethoxy-4-(6-(6-((6-methoxypyridin-3-yl)methyl)-3,6-diazabicyclo[3.3.1]heptan-3-yl)pyridin-3-yl)-1H-pyrazolo[3′,4′:3,4]pyrazolo[1,5-a]pyridine] | 9.70 | significantly better than that of cabozantinib | 88.5% | 8.72 | significantly better than that of cabozantinib and selpercatinib (LOXO-292) | 8.26 | significantly better than that of cabozantinib | 10.00 | significantly better than that of cabozantinib | 94% | significantly lower than that of the selpercatinib group | significantly lower than that of the selpercatinib group |
| COc1ccc(CN2C3CC2CN(c2ccc(-c4cc(OCCF)cn5nc6[nH]ncc6c45)cn2)C3)cn1 [Compound 31, 6-(2-fluoroethoxy)-4-(6-(6-((6-methoxypyridin-3-yl)methyl)-3,6-diazabicyclo[3.3.1]heptan-3-yl)pyridin-3-yl)-1H-pyrazolo[3′,4′:3,4]pyrazolo[1,5-a]pyridine] | 10.00 | significantly better than that of cabozantinib | 87.4% | 9.00 | significantly better than that of cabozantinib and selpercatinib (LOXO-292) | 7.90 | significantly better than that of cabozantinib | 10.00 | significantly better than that of cabozantinib | 92% | significantly lower than that of the selpercatinib group | significantly lower than that of the selpercatinib group |
| COc1ccc(CN2C3CC2CN(c2ccc(-c4cc(OCCOC(F)F)cn5nc6[nH]ncc6c45)cn2)C3)cn1 [Compound 27, 6-(2-(difluoromethoxy)ethoxy)-4-(6-(6-((6-methoxypyridin-3-yl)methyl)-3,6-diazabicyclo[3.3.1]heptan-3-yl)pyridin-3-yl)-1H-pyrazolo[3′,4′:3,4]pyrazolo[1,5-a]pyridine] | 10.00 | significantly better than that of cabozantinib | – | 8.32 | significantly better than that of cabozantinib and selpercatinib (LOXO-292) | 7.55 | significantly better than that of cabozantinib | 10.00 | significantly better than that of cabozantinib | – | – | – |
